Where two headings read alike, the source gives them in different places.
How the values were obtained:
[1] = tested on: penile reflexes in castrated rats; assay: Penile reflexes (E2, cups) in castrated rats after transdermal application; assay type: in vivo, rat
Protocol: (a) The ointment composition was: 31.2 μl 10% Sefsol 318™ (glyceryl monocaprylate), and either 0.24 mg stearoyl-VIP in 31.2 μl DMSO (1-2μl per animal) (SEFS in FIG. 1) or 0.24 rig stearoyl-Nle^17 -VIP in the above (SEFS* in FIG. 1).
(b) For other analogs described hereinafter 10 μl of solution were used per animal containing 7 μg of active material in a vehicle containing 5% Sefsol and 20% isopropanol.
In a further set of experiments the effects of stearoyl-VIP compounded with Sefsol 318™ were compared with those of stearoyl-Nle^17 -VIP compounded with Sefsol 318™.
In a second type of biological experiments the effects of compositions containing other modified VIP conjugates compounded with Sefsol 318™ were tested.
Rats with reduced sexual potential due to castration were employed. Male rats (250-300 g, about three month old) were kept in a 12-hours light, 12-hours dark cycle. Experiments were always conducted within the dark period, 2-6 hours after the onset of darkness. Male rats were castrated and given partial testosterone replacement (4 μg/100 g body weight) in the form of daily injection for 14-21 consecutive days (the duration of the experiment). Experiments were conducted one week following surgery.
A procedure was utilized that employed the technique that measures sexual reflexes in the penis, which enables direct evaluation of penile erection following transdermal administration of the drug. Successful reproduction depends, in large part, upon the precise execution of temporally organized, functionally related behavioural units. In these experiments, we concentrated on the final stages of the erection process (reddening of the penis accompanied by its distension and extension leading to complete erection) and monitored the latency time to the first E2 and first cup(^14).
For testing, each animal was restrained in a supine position with the anterior portion of its body enclosed in a loosely fitting cylinder (7 cm diam). After a belt was secured around the torso, the glans penis was extruded from its sheath and gently held perpendicular to the abdomen by a thin wooden applicator positioned at the posterior of the penis. The legs of the male were held by the observer and this position was maintained throughout the test period. The duration of the session was 45 minutes. The latencies and numbers of E2 and cups were recorded and plotted.
An E2 is defined as a complete erection which can be followed by cup in which the penile tip is turned into a cup-like structure, whereby the glands flare out such that the penis is wider in its distal portion than its base. This final stage requires E2 and is probably a pre-requisite for ejaculation (13). Using, all the parameters one can obtain a reliable measure of the sexual activity of the tested rat.
Six to ten animals were tested in this paradigm for each variable. Control animals received ointment compositions without the modified VIP conjugate.

[2] = Skin penetration and body distribution of 125I-labelled conjugates after topical application to the penis; assay type: in vivo
Source text: These experiments were divided into two groups. In the first group of experiments we performed a time course of the distribution of radioactively labelled stearoyl-Nle^17 -VIP (in Sefsol 318™), applied transdermally to the penis of the animals, in various organs of the body. In the second group of experiments we compared the penetration of radioactively labelled VIP, Nle^17 -VIP St-VIP and St-Nle^17 -VIP with Sefsol 318™ following transdermal application. Two to four animals were used for each data point. The derivatives were labelled with 1251 using the chloramine-T based method^(14).
In the first group of experiments, stearoyl-Nle^17 -VIP was radioactively labelled with I^125. Each animal received 2.2 million CPM, in 6μl of the radioactive material+ 26μl ointment (ointment No. 4 in Example 5). Two animals were used for each time point in two independent experiments. To avoid oral absorbance, the animal mouth was sealed. At indicated times following topical application, animals were sacrificed and duplicate tissue samples were removed, weighed and counted in a gamma counter. Tissues measured were: lungs (LU), heart (HE), kidneys (KI), liver (Li) and intestine (IN).
In the second group of experiments compositions of Sefsol 318™ and VIP, St-VIP, Nle^17 -VIP and St-Nle^17 -VIP were prepared. The experiments were performed as in FIG. 7 with the only difference that each animal received a 2.4 million CPM, 2-4 animals were utilized for each variable. Animals were sacrificed 30 minutes after the application of the drug.

Sprague Dawley rats [3] = assay: Single dose toxicity, intravenous (tail vein); assay type: in vivo, rat; settings: for acute intravenous median lethal dose (LD50): with vehicle
Protocol: The single dose toxicity of stearoyl-Nle^17 -VIP injected intravenously, into the tail vein, was investigated in 4 groups of six male and six female rates [Sprague Dawley (S.D.) strain, purchased from Levinstein, Yokneam, Israel).
Test Groups constitution:
2. Vehicle (Sefsol 5% + isopropanol 50%)
3. Stcaroyl-Nle^17 -VIP 7 μg/rat + vehicle
4. Stearyol-Nle^17 -VIP 7,000 μg/rat + vehicle

[4] = Stability of the test material; assay type: physicochemical
Sprague Dawley rats [5] = assay: Repeated dose toxicity, topical, 13 weeks
Protocol: The repeated dose toxicity of stearoyl-Nle^17 -VIP administered topically was investigated in 80 SPF (Specified pathogen free) rats divided into 4 groups of ten male and ten female Sprague Dawley (S.D.) strain rats purchased from Harlan, Olac, England.
Group 1: 7 μg stearoyl-Nle^17 -VIP+vehicle (1× dose)
Group 2: 700 μg stearoyl-Nle^17 -VIP+vehicle (100× dose)
Group 4: Vehicle only (5% Sefsol+20% isopropanol)

[6] = tested on: penile erection in normal male; settings: cited from earlier work
[7] = Table 3, topical, 7 μg in 5% Sefsol and 20% isopropanol, castrated rats, 45 min session
[8] = Group 3, 7 μg/rat + vehicle i.v.
[9] = daily topical 7, 700, 3500 μg, 13 weeks
[10] = daily topical 7, 700, 3500 μg, 13 weeks, male and female rats

stearoyl-norleucine^17 -VIP [St-Nle^17 -VIP]
No. of E2 [1, 7]: 9
No. of cups [1, 7]: 27
biologically active dose ([1]; pharmacological experimentation, rat): 7 μg per rat
latency to first E2 ([1]; topical, in Sefsol 318 ointment (SEFS*), castrated rats, 45 min session, FIG. 1): about 1 minute
latency to first cup ([1]; topical, in Sefsol 318 ointment (SEFS*), castrated rats, 45 min session, FIG. 2): 10 min
number of E2 during the test period ([1]; topical, in Sefsol 318 ointment, castrated rats, 45 min session, FIG. 3): 34
number of cups ([1]; topical, in Sefsol 318 ointment, castrated rats, 45 min session, FIG. 4): 20
efficiency according to all the four parameters tested ([1]; transdermal, Sefsol 318 composition, compared with stearoyl-VIP in Sefsol 318): more efficient
disappearance from organs, time after administration ([2]; 125I-labelled, topical in Sefsol 318, FIG. 7): 2.5 h
peak deliveries to organs, time after administration ([2]; 125I-labelled, topical in Sefsol 318, lungs, heart, kidneys, liver, intestine, FIG. 7): 15 to 60 min
concentrations in kidney, liver and intestines ([2]; 30 minutes after topical application in Sefsol 318, compared with VIP, Nle17-VIP, St-VIP, FIG. 8): highest concentrations
mortality (Sprague Dawley rats [3]; [8]): No mortality
necrotic reaction at the site of injection (tail skin), share of animals (Sprague Dawley rats [3]; [8]): 58%
necrotic reaction at the site of injection (tail skin), share of animals (Sprague Dawley rats [3]; Group 4, 7,000 μg/rat + vehicle i.v.): all the animals
mortality (Sprague Dawley rats [3]; Group 4, 7,000 μg/rat + vehicle i.v., within 3 hours after administration): Seven rats (3 male and 4 female out of 12) died
acute intravenous median lethal dose (LD50) (Sprague Dawley rats [3]; combined males and females): < 7,000 μg
acute intravenous median lethal dose (LD50) (Sprague Dawley rats [3]; male rats): 7,000 μg/male rat
other side effects (Sprague Dawley rats [3]; surviving rats of all groups): No other side effects
body weight gain (Sprague Dawley rats [3]; two weeks after i.v. dose, ANOVA versus vehicle control group): increased weight gain
stability compared with stearoyl-VIP [4]: more stable
Stability ([4]; powder): for a year
Stability ([4]; refrigerated in a solubilized form): for at least six weeks
adverse effects (Sprague Dawley rats [5]; [9]): No dose related adverse effects
clinical pathology (hematology, clinical chemistry) (Sprague Dawley rats [5]; [9]): No dose related or sex related biologically meaningful treatment effects
body weight gain and food consumption (Sprague Dawley rats [5]; [10]): No significant differences
mortality (Sprague Dawley rats [5]; [10]): No mortality associated with drug application
organ weight analysis (Sprague Dawley rats [5]; daily topical 7, 700, 3500 μg, 13 weeks, versus control group): No treatment related differences
overall conclusion, serious adverse effects (Sprague Dawley rats [5]; daily topical application for 13 weeks, any of the dosages tested): did not cause any serious adverse effects

Vasoactive intestinal peptide (HSDAVFTDNYTRLRKQMAVKKYLNSILN) [VIP]
penile response ([6]; as little as 1 μg into the corpus cavernosum, coupled with sexual stimulation): facilitated full erection
penile response ([6]; up to 20 μg into the corpus cavernosum, without sexual stimulus): caused only slight swelling of the penis but not erection

Source: patent US5998368A, “Derivatives of structurally modified VIP and pharmaceutical compositions containing them” (Yeda Research and Development Co. Ltd., priority 1991, dated 1999)
